Experimental data taken from patent US20100120843A1, “PHARMACEUTICAL COMPOSITION FOR TREATING ALCOHOL-INDUCED LIVER INJURY COMPRISING (4S,5S)-5-FLUOROMETHYL-5-HYDROXY-4-(AMINO)-DIHYDROFURAN-2-ONE OR PHARMACEUTICALLY ACCEPTABLE SALT THEREOF” (LG Life Sciences Ltd., priority 2008, published 2010).

Assays:
[1] = target: T1, caspase-3 (Rattus norvegicus, UniProt P55213); assay: Fluorometric assay of caspase-3 activity in cellular extraction of liver tissue; format: in vivo; conditions: EtOH diet with CF1 10 mg/kg oral daily, 12 weeks, LPS 1 mg/kg i.p. 8 h before sacrifice; FIG. 1
T1 construct: the activities of caspase-3 and caspase-8 were assayed in cellular extraction of liver tissue; from tissue; host or cells: liver of Sprague-Dawley rats dosed orally with CF1
T1 sequence (P55213 29-175 limits assumed): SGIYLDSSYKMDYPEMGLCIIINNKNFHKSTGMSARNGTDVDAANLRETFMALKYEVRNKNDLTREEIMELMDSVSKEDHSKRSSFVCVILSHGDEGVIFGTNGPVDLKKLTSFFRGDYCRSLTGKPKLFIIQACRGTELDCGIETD
T1 sequence (P55213 176-277 limits assumed): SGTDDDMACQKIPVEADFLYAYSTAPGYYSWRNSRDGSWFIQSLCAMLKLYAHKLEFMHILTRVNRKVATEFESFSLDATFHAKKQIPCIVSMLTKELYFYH
Description: (§1) Male Sprague-Dawley rats (5 weeks of age, 170 g of body weight) were divided into four experimental groups: control diet group, control diet with CF1 group, ethanol (EtOH) diet group and EtOH diet with CF1 group. Control diet group, control diet with CF1 group, EtOH diet group, and EtOH diet with CF1 group were fed, respectively, with Lieber-Decarli control diet, Lieber-Decarli control diet and CF1, Lieber-Decarli liquid diet containing 6% ethanol, and Lieber-Decarli liquid diet containing 6% ethanol and CF1 for 12 weeks. CF1 was dissolved in PEG (polyethylene glycol) 400 and 5% ethanol solution (PEG 400:ethanol=2:1), and administered daily at 10 mg/kg by oral gavage. About 8 hours prior to rats' sacrifice, lipopolysaccharide (LPS) was intraperitoneally injected to increase the liver injury in the amount of 1 mg/kg.
(§2) To investigate the role of caspase in alcohol-induced liver injury, the activities of caspase-3 and caspase-8 were assayed in cellular extraction of liver tissue. The activities of caspase-3 and caspase-8 were assayed by using EnzChek™ Caspase Assay Kit molecular Probes, USA) according to the manufacturer's instructions.

[2] = target: T2, caspase-8 (Rattus norvegicus, UniProt Q9JHX4); assay: Fluorometric assay of caspase-8 activity in cellular extraction of liver tissue; format: in vivo; conditions: EtOH diet with CF1 10 mg/kg oral daily, 12 weeks, LPS 1 mg/kg i.p. 8 h before sacrifice; FIG. 2
T2 construct: the activities of caspase-3 and caspase-8 were assayed in cellular extraction of liver tissue; from tissue; host or cells: liver of Sprague-Dawley rats dosed orally with CF1
T2 sequence (Q9JHX4 219-378 limits assumed): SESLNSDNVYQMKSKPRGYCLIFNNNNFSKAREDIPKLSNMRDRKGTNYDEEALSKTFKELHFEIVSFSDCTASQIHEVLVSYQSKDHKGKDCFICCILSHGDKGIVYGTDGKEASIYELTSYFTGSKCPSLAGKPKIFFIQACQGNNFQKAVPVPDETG
T2 sequence (Q9JHX4 389-482 limits assumed): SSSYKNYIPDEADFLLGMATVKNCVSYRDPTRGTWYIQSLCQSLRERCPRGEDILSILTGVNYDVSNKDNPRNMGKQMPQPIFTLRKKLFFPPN
Description: as §1, §2

[3] = Determination of serum liver enzymes (AST, ALT) in association with liver injury; format: in vivo, rat; conditions: 12 weeks
Description: as §1
Liver injury was assessed by a biochemical assay of liver enzyme. After the 12 weeks' experiment, the blood samples were obtained from all rats' heart. Serum aspartate transaminase (AST) and alanine transaminase (ALT) values were analyzed for 100 μl of plasma from each blood sample with Hitachi 7050 automatic analyzer (Hitachi, Japan).

[4] = tested on: apoptosis of liver cell; assay: TUNEL staining of liver tissue (apoptosis of liver cell); format: in vivo, rat
Description: as §1
To investigate apoptosis of liver cell according to alcohol ingestion, TUNEL staining was processed. TUNEL staining was carried out using in situ Cell Death Detection Kit (Roche Diagnostics, Germany) according to the manufacturer's instructions.
Stained tissue was photographed at 100 times magnification (FIG. 5). TUNEL positive cells per field were calculated.

[5] = tested on: liver; assay: Histological assessment of liver (H&E and Masson's trichrome); format: in vivo, rat
Description: as §1
The extracted livers were fixed by 10% neutral formalin in PBS (phosphate buffered saline). Then, a paraffin section of 4 μm thickness was prepared, and stained with H&E (Hematoxylin & Eosin) and Masson's trichrome. The stained tissue was photographed at 100 times magnification (FIGS. 4A and 4B).

CC(C)[C@@]1(C(=O)N[C@H]2CC(=O)O[C@]2(O)CF)CC(c2nccc3ccccc23)=NO1 [CF1, (4S,5S)-5-fluoromethyl-5-hydroxy-4-({[(5R)-5-isopropyl-3-(isoquinolin-1-yl)-4,5-dihydro-5-isoxazolyl]carbonyl}amino)-dihydrofuran-2-one]
caspase-3 activity in liver tissue [1]: decreased to the level of control group
caspase-8 activity in liver tissue [2]: decreased to the level of control group
Serum alanine transaminase (ALT) ([3]; Alcohol diet with CF1 10 mg/kg oral daily, alcohol diet group 336±163 IU/L): 120±10 IU/L
Serum aspartate transaminase (AST) ([3]; Alcohol diet with CF1 10 mg/kg oral daily, alcohol diet group 454±175 IU/L): 194±22 IU/L
Serum AST and ALT values compared with control diet group ([3]; Control diet with CF1 10 mg/kg oral daily, FIG. 3): did not show significant change
TUNEL positive cells per field ([4]; Alcohol diet with CF1 10 mg/kg oral daily, 12 weeks, alcohol diet group 25.14±9.14, control diet group 10.3±1.9): 6.4±1.1 TUNEL positive cells/field
TUNEL positive cells ([4]; Control diet with CF1 group, FIGS. 5 and 6): rarely observed
Hepatic fibrosis (Masson's trichrome) ([5]; Alcohol diet with CF1 compared with control diet groups, no statistical significance, FIG. 4B): some progression of hepatic fibrosis
Fatty liver (H&E staining) ([5]; Alcohol diet with CF1 vs alcohol diet group, FIG. 4A): inhibited the increase of fatty liver
